Laboratory results from patent EP2997966A1, “Naphthyl Sulfonamide Pyrrolidine Derivatives as KEAP-1 Modulators for the Treatment of Diabetes, Obesity, Dyslipidemia and Related Disorders” (SANOFI, priority 2014, dated 2016).

The compounds below were run against T1, human Keap1 kelch domain (amino acids Ala321-Thr609) (Homo sapiens, UniProt Q14145) (assay: Keap1-Nrf2 peptide binding assay (fluorescence polarisation)). Details: binding to fluorescently labeled human Nrf2 peptide; 20 nM Keap1 kelch domain, 50 nM peptide.
T1 construct: human Keap1 kelch domain (amino acids Ala321-Thr609)
Description: Keap1-Nrf2 peptide binding assay
Two microliters of test compound in reaction buffer (phosphate-buffered saline, 2 mM DL-dithiothreitol, 0.015 % (v/v) Brij-35) containing 6 % (v/v) DMSO were mixed with two microliters of the Keap1 kelch domain in reaction buffer in a black 384-well small volume microtiter plate and incubated at ambient temperature for 15 minutes. Thereafter, two microliters were added of the fluorescently labeled Nrf2 peptide in reaction buffer, and the mixture was incubated for a further 30 minutes at ambient temperature. Final concentrations of the Keap1 kelch domain and the fluorescently labeled Nrf2 peptide were 20 nM and 50 nM, respectively.
Fluorescence polarization (FP) was measured at excitation and emission wavelengths of 635 nm and 660 nm, respectively. Positive controls for binding (two microliters of reaction buffer containing 6 % (v/v) DMSO instead of test compound in the same buffer) and negative controls (as positive controls, but without Keap1 kelch domain) were included on each microtiter plate.

T1 sequence (Q14145 321-609): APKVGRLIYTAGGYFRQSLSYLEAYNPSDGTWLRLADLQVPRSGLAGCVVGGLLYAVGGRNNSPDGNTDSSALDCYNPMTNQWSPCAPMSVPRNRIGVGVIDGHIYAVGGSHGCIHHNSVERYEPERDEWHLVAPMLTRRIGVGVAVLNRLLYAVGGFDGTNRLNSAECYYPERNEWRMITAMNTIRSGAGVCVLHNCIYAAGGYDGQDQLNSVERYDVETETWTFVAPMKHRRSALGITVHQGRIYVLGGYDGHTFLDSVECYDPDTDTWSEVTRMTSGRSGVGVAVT

SMILES	IC50 [nM]
CCCn1ncc(S(=O)(=O)Nc2ccc(N3CC[C@@H](C(=O)O)C3)c3ccccc23)c1C [Example 54, (3R)-1-[4-[(5-methyl-1-propyl-pyrazol-4-yl)sulfonylamino]-1-naphthyl]pyrrolidine-3-carboxylic acid]	1800
Cc1nn(C)c(C)c1S(=O)(=O)Nc1ccc(N2CC[C@@H](C(=O)O)C2)c2ccccc12 [Example 38, (3R)-1-[4-[(1,3,5-trimethylpyrazol-4-yl)sulfonylamino]-1-naphthyl]pyrrolidine-3-carboxylic acid]	900
Cc1c(S(=O)(=O)Nc2ccc(N3CC[C@@H](C(=O)O)C3)c3ncccc23)c2ccccc2n1C [Example 71, (3R)-1-[5-[(1,2-dimethylindol-3-yl)sulfonylamino]-8-quinolyl]pyrrolidine-3-carboxylic acid]	1100
O=C(O)[C@@H]1CCN(c2ccc(NS(=O)(=O)c3cc(Cl)ccc3Cl)c3ccccc23)C1 [Example 48, (3R)-1-[4-[(2,5-dichlorophenyl)sulfonylamino]-1-naphthyl]pyrrolidine-3-carboxylic acid]	2500
Cc1ccc(Cl)cc1S(=O)(=O)Nc1ccc(N2CC[C@H](C(=O)O)C2)c2ccccc12 [Example 26, (3S)-1-[4-[(5-chloro-2-methylphenyl)sulfonylamino]-1-naphthyl]pyrrolidine-3-carboxylic acid]	8100
O=C(O)[C@@H]1CCN(c2ccc(NS(=O)(=O)c3cc(F)cc(F)c3Cl)c3ccccc23)C1 [Example 46, (3R)-1-[4-[(2-chloro-3,5-difluorophenyl)sulfonylamino]-1-naphthyl]pyrrolidine-3-carboxylic acid]	7400
Cc1nc(C)c(S(=O)(=O)Nc2ccc(N3CC[C@@H](C(=O)O)C3)c3ccccc23)s1 [Example 41, (3R)-1-[4-[(2,4-dimethylthiazol-5-yl)sulfonylamino]-1-naphthyl]pyrrolidine-3-carboxylic acid]	1600
Cc1nn(C)c(C)c1S(=O)(=O)Nc1ccc(N2CC[C@H](C(=O)O)C2)c2ccccc12 [Example 22, (3S)-1-[4-[(1,3,5-trimethylpyrazol-4-yl)sulfonylamino]-1-naphthyl]pyrrolidine-3-carboxylic acid]	4500
COc1ccc(S(=O)(=O)Nc2ccc(N3CC[C@@H](C(=O)O)C3)c3ccccc23)c(OC)c1 [Example 47, (3R)-1-[4-[(2,4-dimethoxyphenyl)sulfonylamino]-1-naphthyl]pyrrolidine-3-carboxylic acid]	6100
Cc1cc(C)c(C)c(S(=O)(=O)Nc2ccc(N3CCCC(C(=O)O)C3)c3ncccc23)c1C (centres unmarked) [Example 15, 1-[5-[(2,3,5,6-tetramethylphenyl)sulfonylamino]-8-quinolyl]piperidine-3-carboxylic acid; 2,2,2-trifluoroacetic acid]	24000

Same assay, conditions: binding to fluorescently labeled human Nrf2 peptide; 20 nM Keap1 kelch domain, 50 nM peptide; read-out: IC50

SMILES	IC50 [nM]
O=C(O)[C@@H]1CCN(c2ccc(NS(=O)(=O)c3cccc(Cl)c3Cl)c3ccccc23)C1 [Example 35, (3R)-1-[4-[(2,3-dichlorophenyl)sulfonylamino]-1-naphthyl]pyrrolidine-3-carboxylic acid]	1800
O=C(O)[C@@H]1CCN(c2ccc(NS(=O)(=O)c3ccc4c(c3)CCCC4)c3ccccc23)C1 [Example 77, (3R)-1-[4-(tetralin-6-ylsulfonylamino)-1-naphthyl]pyrrolidine-3-carboxylic acid]	600
Cc1cc(C)c(C)c(S(=O)(=O)Nc2ccc(C3=CCC(C(=O)O)CC3)c3ccccc23)c1C (centres unmarked) [Example 57, 4-[4-[(2,3,5,6-tetramethylphenyl)sulfonylamino]-1-naphthyl]cyclohex-3-ene-1-carboxylic acid]	600
O=C(O)[C@@H]1CCN(c2ccc(NS(=O)(=O)c3ccc(Cl)cc3Cl)c3ccccc23)C1 [Example 12, (3R)-1-[4-[(2,4-dichlorophenyl)sulfonylamino]-1-naphthyl]pyrrolidine-3-carboxylic acid]	1300
CCCCCCCCn1nc(C)c(S(=O)(=O)Nc2ccc(N3CC[C@@H](C(=O)O)C3)c3ccccc23)c1C [Example 65, (3R)-1-[4-[(3,5-dimethyl-1-octyl-pyrazol-4-yl)sulfonylamino]-1-naphthyl]pyrrolidine-3-carboxylic acid]	190
COc1ccc(F)c(S(=O)(=O)Nc2ccc(N3CC[C@@H](C(=O)O)C3)c3ccccc23)c1 [Example 44, (3R)-1-[4-[(2-fluoro-5-methoxyphenyl)sulfonylamino]-1-naphthyl]pyrrolidine-3-carboxylic acid]	2500
COc1ccc(F)c(S(=O)(=O)Nc2ccc(N3CC[C@H](C(=O)O)C3)c3ccccc23)c1 [Example 27, (3S)-1-[4-[(2-fluoro-5-methoxyphenyl)sulfonylamino]-1-naphthyl]pyrrolidine-3-carboxylic acid]	7100
O=C(O)[C@@H]1CCN(c2ccc(NS(=O)(=O)c3ccc(Cl)c(C(F)(F)F)c3)c3ccccc23)C1 [Example 40, (3R)-1-[4-[[4-chloro-3-(trifluoromethyl)phenyl]sulfonylamino]-1-naphthyl]pyrrolidine-3-carboxylic acid]	5000
Cc1c(S(=O)(=O)Nc2ccc(N3CC[C@@H](C(=O)O)C3)c3ncccc23)sc2ccc(Cl)cc12 [Example 72, (3R)-1-[5-[(5-chloro-3-methyl-benzothiophen-2-yl)sulfonylamino]-8-quinolyl]pyrrolidine-3-carboxylic acid]	400
CCCCCCCCn1nc(C)c(S(=O)(=O)Nc2ccc(N3CC[C@@H](C(=O)O)C3)c3ncccc23)c1C [Example 73]	1600
Cc1cc(C)c(C)c(S(=O)(=O)Nc2ccc(N3CCC[C@H](C(=O)O)C3)c3ccccc23)c1C [Example 59, (3S)-1-[4-[(2,3,5,6-tetramethylphenyl)sulfonylamino]-1-naphthyl]piperidine-3-carboxylic acid]	500
CCCCn1cc(S(=O)(=O)Nc2ccc(N3CC[C@@H](C(=O)O)C3)c3ccccc23)c(C)n1 [Example 13, (3R)-1-[4-[(1-butyl-3-methyl-pyrazol-4-yl)sulfonylamino]-1-naphthyl]pyrrolidine-3-carboxylic acid]	2300
CCCCn1cc(S(=O)(=O)Nc2ccc(N3CC[C@H](C(=O)O)C3)c3ccccc23)c(C)n1 [Example 11, (3S)-1-[4-[(1-butyl-3-methyl-pyrazol-4-yl)sulfonylamino]-1-naphthyl]pyrrolidine-3-carboxylic acid]	5000
